# Legend:
# Assay in all cases: relative viability (nuclei count vs DMSO), 5 days (fraction); higher = more cells survive
# QS11 + OSI-027 = compound: C1CC2=C(C1)C=C(C=C2)OC3=NC(=C4C(=N3)N(C=N4)CC5=CC=C(C=C5)C6=CC=CC=C6)N[C@@H](CC7=CC=CC=C7)CO [QS11] + COc1cccc2cc(-c3nc([C@H]4CC[C@H](C(=O)O)CC4)n4ncnc(N)c34)[nH]c12 [OSI-027] (partner 0.5 µM)
# Procedure, shortened: (§1)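 Relative viability equals treated-well nuclei counts divided by vehicle-well nuclei counts. Counts came from 4× images of lung cancer cell lines grown in 1536-well plates for 5 days after pin-tool dosing on the day after seeding. Dosing used one drug alone or a fixed anchor-drug dose plus five library-drug doses (not always all listed) in √10 steps, and values are medians of duplicate plates.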
# QS11 + Dasatinib = compound: C1CC2=C(C1)C=C(C=C2)OC3=NC(=C4C(=N3)N(C=N4)CC5=CC=C(C=C5)C6=CC=CC=C6)N[C@@H](CC7=CC=CC=C7)CO [QS11] + Cc1nc(Nc2ncc(C(=O)Nc3c(C)cccc3Cl)s2)cc(N2CCN(CCO)CC2)n1 [Dasatinib] (partner 0.075 µM)
# Procedure, shortened: as §1
# AZ628 + Trametinib = compound: CC1=C(C=C(C=C1)NC(=O)C2=CC(=CC=C2)C(C)(C)C#N)NC3=CC4=C(C=C3)N=CN(C4=O)C [AZ628] + CC(=O)Nc1cccc(-n2c(=O)n(C3CC3)c(=O)c3c(Nc4ccc(I)cc4F)n(C)c(=O)c(C)c32)c1 [Trametinib] (partner 0.02 µM)
# Procedure, shortened: as §1
# AZ628 + Phenformin = compound: CC1=C(C=C(C=C1)NC(=O)C2=CC(=CC=C2)C(C)(C)C#N)NC3=CC4=C(C=C3)N=CN(C4=O)C [AZ628] + N=C(N)NC(=N)NCCc1ccccc1 [Phenformin] (partner 250 µM)
# Procedure, shortened: as §1
Cell Line,relative viability (QS11 + OSI-027; first compound 0.08 µM),relative viability (QS11 + OSI-027; first compound 0.253 µM),relative viability (QS11 + OSI-027; first compound 0.8 µM),relative viability (QS11 + OSI-027; first compound 2.53 µM),relative viability (QS11 + OSI-027; first compound 8 µM),relative viability (QS11 + Dasatinib; first compound 0.08 µM),relative viability (QS11 + Dasatinib; first compound 0.253 µM),relative viability (QS11 + Dasatinib; first compound 0.8 µM),relative viability (QS11 + Dasatinib; first compound 2.53 µM),relative viability (QS11 + Dasatinib; first compound 8 µM),relative viability (AZ628 + Trametinib; first compound 0.08 µM),relative viability (AZ628 + Trametinib; first compound 0.253 µM),relative viability (AZ628 + Trametinib; first compound 0.8 µM),relative viability (AZ628 + Trametinib; first compound 2.53 µM),relative viability (AZ628 + Trametinib; first compound 8 µM),relative viability (AZ628 + Phenformin; first compound 0.08 µM),relative viability (AZ628 + Phenformin; first compound 0.253 µM),relative viability (AZ628 + Phenformin; first compound 0.8 µM),relative viability (AZ628 + Phenformin; first compound 2.53 µM),relative viability (AZ628 + Phenformin; first compound 8 µM)
NCI-H1651,0.618,0.645,0.733,0.625,0.662,0.486,0.306,0.333,0.495,0.291,0.848,0.83,0.858,0.826,0.77,0.396,0.316,0.334,0.312,0.36
LK-2,0.181,0.238,0.188,0.212,0.22,0.287,0.321,0.317,0.268,0.306,0.332,0.468,0.251,0.27,0.301,0.508,0.312,0.557,0.304,0.172
NCI-H2023,0.477,0.344,0.52,0.486,0.364,0.634,0.475,0.555,0.572,0.618,0.402,0.338,0.203,0.237,0.183,0.387,0.392,0.368,0.381,0.293
NCI-H2342,0.643,0.703,0.611,0.663,0.636,0.318,0.323,0.299,0.35,0.348,0.839,0.878,0.907,0.752,0.978,0.657,0.469,0.653,0.65,0.646
COR-L23,0.756,0.881,0.568,0.475,0.444,0.505,0.59,0.552,0.358,0.355,0.292,0.237,0.271,0.211,0.271,0.54,0.476,0.433,0.445,0.333
NCI-H1734,0.66,0.548,0.594,0.517,0.49,0.449,0.509,0.504,0.481,0.597,0.42,0.386,0.313,0.344,0.301,0.383,0.346,0.282,0.327,0.247
NCI-H23,0.626,0.516,0.52,0.453,0.305,0.809,0.673,0.738,0.654,0.712,0.178,0.29,0.211,0.191,0.23,0.841,0.806,0.619,0.716,0.595
NCI-H647,0.585,0.64,0.596,0.642,0.732,0.164,0.219,0.216,0.184,0.205,0.277,0.233,0.22,0.22,0.22,0.695,0.525,0.467,0.323,0.405
NCI-H1915,0.61,0.617,,0.622,0.591,0.348,0.321,,0.35,0.239,0.139,0.128,0.109,0.144,0.0954,0.404,0.388,0.374,0.351,0.233
201T,0.759,0.685,0.662,,0.836,0.57,0.543,0.561,0.599,0.376,0.709,0.693,0.71,0.667,0.561,0.507,0.455,0.245,0.438,0.445
NCI-H3122,1.03,1.41,,0.994,0.757,0.876,0.82,,0.969,0.538,0.157,0.143,0.159,0.138,0.132,0.366,0.288,0.305,0.31,0.289
NCI-H2170,0.691,0.692,0.703,0.8,0.743,0.621,0.482,0.582,0.794,0.968,0.872,0.897,0.799,0.807,0.583,0.447,0.398,0.402,0.41,0.381
HCC-78,0.405,0.351,0.35,0.435,0.478,0.432,0.395,0.491,0.558,0.67,0.613,0.424,0.377,0.375,0.46,0.814,0.631,0.767,0.705,0.726
HARA,0.41,0.453,,0.457,0.595,0.294,0.281,,0.221,0.307,0.209,0.168,0.15,0.172,0.356,0.527,0.402,0.409,0.465,0.376
NCI-H2347,0.489,0.474,0.411,0.371,0.347,0.279,0.297,0.308,0.274,0.308,0.233,0.277,0.261,0.256,0.27,0.267,0.392,0.493,0.324,0.205
NCI-H1437,0.95,0.946,0.77,0.834,0.827,0.397,0.347,0.404,0.531,0.391,0.494,0.549,0.471,0.557,0.566,0.369,0.266,0.262,0.331,0.318

Cell Line,relative viability (QS11 + OSI-027; first compound 0.08 µM),relative viability (QS11 + OSI-027; first compound 0.253 µM),relative viability (QS11 + OSI-027; first compound 0.8 µM),relative viability (QS11 + OSI-027; first compound 2.53 µM),relative viability (QS11 + OSI-027; first compound 8 µM),relative viability (QS11 + Dasatinib; first compound 0.08 µM),relative viability (QS11 + Dasatinib; first compound 0.253 µM),relative viability (QS11 + Dasatinib; first compound 0.8 µM),relative viability (QS11 + Dasatinib; first compound 2.53 µM),relative viability (QS11 + Dasatinib; first compound 8 µM),relative viability (AZ628 + Trametinib; first compound 0.08 µM),relative viability (AZ628 + Trametinib; first compound 0.253 µM),relative viability (AZ628 + Trametinib; first compound 0.8 µM),relative viability (AZ628 + Trametinib; first compound 2.53 µM),relative viability (AZ628 + Trametinib; first compound 8 µM),relative viability (AZ628 + Phenformin; first compound 0.08 µM),relative viability (AZ628 + Phenformin; first compound 0.253 µM),relative viability (AZ628 + Phenformin; first compound 0.8 µM),relative viability (AZ628 + Phenformin; first compound 2.53 µM),relative viability (AZ628 + Phenformin; first compound 8 µM)
NCI-H522,0.733,0.795,0.722,0.727,1.97,0.857,0.826,0.922,0.975,1.07,0.768,0.745,0.678,0.732,0.584,0.628,0.516,0.617,0.542,0.663
LXF-289,0.764,0.805,0.692,0.873,0.82,0.228,0.263,0.241,0.291,0.191,0.603,0.477,0.472,0.525,0.38,0.527,0.499,0.473,0.501,0.362
NCI-H1792,0.731,0.969,0.65,0.565,0.82,0.697,0.754,0.672,0.745,0.942,0.333,0.247,0.117,0.195,0.052,0.309,0.258,0.225,0.158,0.115
LU99A,0.255,0.306,0.299,0.291,0.315,0.463,0.587,0.685,0.684,0.681,0.296,0.277,0.245,0.244,0.288,0.808,0.67,0.694,0.782,0.551
NCI-H358,0.774,0.854,0.888,0.849,1.01,0.144,0.171,0.189,0.393,0.656,0.113,0.112,0.104,0.102,0.134,0.32,0.208,0.216,0.222,0.216
NCI-H1666,0.856,0.696,0.667,0.604,0.606,0.783,0.839,0.568,0.583,0.528,0.758,0.697,0.841,0.6,0.777,0.584,0.582,0.543,0.518,0.514
LOU-NH91,0.678,0.722,0.693,0.728,0.71,0.56,0.51,0.524,0.628,0.602,0.795,0.787,0.713,0.726,0.668,0.749,0.654,0.776,0.661,0.438
RERF-LC-KJ,0.519,0.578,0.543,0.448,0.438,0.921,0.836,0.764,0.61,0.534,0.762,0.719,0.824,0.835,0.736,0.432,0.424,0.392,0.401,0.31
NCI-H2085,0.724,0.655,0.886,0.724,0.831,0.222,0.263,0.277,0.292,0.255,0.502,0.479,0.628,0.601,0.481,0.83,0.662,0.784,0.636,0.583
NCI-H1793,0.248,0.27,0.277,0.341,0.332,0.381,0.374,0.472,0.419,0.48,0.388,0.332,0.282,0.198,0.206,0.433,0.25,0.333,0.314,0.302
HCC-366,0.877,0.749,,0.742,0.257,0.7,0.616,,0.578,0.576,0.277,0.242,0.204,0.233,0.156,0.585,0.572,0.554,0.598,0.499
NCI-H596,0.715,0.688,0.679,0.66,0.732,0.591,0.586,0.584,0.611,0.586,0.779,0.711,0.622,0.786,0.756,0.722,0.85,0.969,0.781,0.808
NCI-H2126,0.685,0.697,0.727,0.653,0.646,0.604,0.505,0.616,0.61,0.566,0.559,0.512,0.498,0.562,0.481,0.524,0.542,0.491,0.484,0.545
EMC-BAC-2,0.391,0.397,0.452,0.373,0.337,0.341,0.337,0.376,0.285,0.269,0.588,0.442,0.416,0.365,0.43,0.584,0.57,0.432,0.602,0.505
H3255,0.593,0.675,,0.558,0.608,0.319,0.394,,0.369,0.402,0.525,0.413,0.384,0.401,0.365,0.41,0.33,0.337,0.393,0.302
NCI-H838,0.339,0.366,0.362,0.378,0.359,0.271,0.312,0.357,0.27,0.276,0.491,0.466,0.486,0.477,0.556,0.666,0.551,0.502,0.493,0.474

# Reference: the supplement of paper PMC10307832
